Data taken from publication PMC7835237, “Dual mechanism β-amino acid polymers promoting cell adhesion” (Nature Communications, 2021).

How the values were obtained:
[1] = tested on: MC3T3-E1 preosteoblast cells; assay: Cell spreading area on modified surfaces (immunofluorescence analysis of cell morphology); type: cell-based, mouse
Procedure: The degree of cell spreading on a functionalized glass slide was measured by immunofluorescence analysis. After culture medium was removed, the slide was washed with PBS and then cells on the slide were fixed with 4% paraformaldehyde for 20 min. The slide was washed with PBS thrice and incubated for 5 min with 0.4% triton-X in PBS. Subsequently, the slide was washed with PBS thrice, followed by blocking with 3% bovine serum albumin (BSA) in PBS for 1 h at rt and then incubated with Alexa Fluor-555-conjugated anti-vinculin antibody (1:300 in PBS) overnight at 4 °C. The slide was washed with PBS thrice and incubated for 2 h with FITC-phalloidin (1:200 in PBS) and 4′-6-diamidino-2-phenylindole (DAPI) (5 μg/mL) for 10 min. The slide was washed with PBS thrice and its fluorescent images were collected on a confocal microscope (Nikon A1R, Japan).

[2] = tested on: MC3T3-E1 preosteoblast cells; assay: Integrin αvβ3 to block RGD, cell adhesion; type: cell-based, mouse; design: unit not given here; settings: for Cell density (figure 5g) / Cell spreading area (figure 5f): - αvβ3: serum-incubated surface without integrin αvβ3, 2 h after seeding; for Supplementary Figure8, cell adhesion on modified surface: - αvβ3
Procedure: An aliquot of 10 μL α-MEM medium containing 10% FBS was added to each well (formed by a 50-well coverslip on the top of a glass slide) and the slide was incubated in a humidified atmosphere at 37 °C for 2 h[24]. The slide was washed with PBS and incubated with integrin αvβ3 (10 µg/mL in PBS) at 37 °C for 1 h. Then cells at a concentration of 1.5 × 10^5 cells/mL in a serum-free medium were added to each individual well, having bottom surface modified with DM50CO50 or RGD peptide. After the slide was incubated at 37 °C for 2 h, cells in each well were stained with a live/dead staining solution and the fluorescent images were captured under a microscope (Nikon Eclipse Ti-S, Japan) at eight different locations in each well. The collected images were analyzed using the Image-pro plus software.

[3] = Water contact angle of modified surfaces; type: physicochemical; settings: modified glass surface, Millipore water drops
Procedure: The water contact angles of bare glass, OEG8, RGD, and DM50CO50-modified surfaces were measured with a contact angle meter (JC2000D2) from Shanghai Zhongchen Digital Technology Apparatus Co., Ltd. Liquid drops (Millipore water) were delivered to the surface using a microsyringe.

With “RGDSPC [cell adhesion gold standard RGD peptide (RGDSPC), attached to surface]” the “Cell area of preosteoblast cells” value ([1]; cultured on modified surface for 3 h, replicate 1) was 3956, the “Cell area of preosteoblast cells” value ([1]; cultured on modified surface for 3 h, replicate 2) was 3895 and the “Cell area of preosteoblast cells” value ([1]; cultured on modified surface for 3 h, replicate 3) was 3549. For the same substance, the “Cell area of preosteoblast cells” value ([1]; cultured on modified surface for 24 h, replicate 1) was 4800, the “Cell area of preosteoblast cells” value ([1]; cultured on modified surface for 24 h, replicate 2) was 4752 and the “Cell area of preosteoblast cells” value ([1]; cultured on modified surface for 24 h, replicate 3) was 4625. The “Cell density (figure 5g)” value ([2]; value 1 of n = 9) was 80, the “Cell spreading area (figure 5f)” value ([2]; value 1 of n = 9) was 3308.7 and the “Cell density (figure 5g)” value ([2]; value 2 of n = 9) was 69. The “Cell spreading area (figure 5f)” value ([2]; value 2 of n = 9) was 3551.3, the “Cell density (figure 5g)” value ([2]; value 3 of n = 9) was 74 and the “Cell spreading area (figure 5f)” value ([2]; value 3 of n = 9) was 2958.5. For the same substance, the “Cell density (figure 5g)” value ([2]; value 4 of n = 9) was 75, the “Cell spreading area (figure 5f)” value ([2]; value 4 of n = 9) was 3300.7 and the “Cell density (figure 5g)” value ([2]; value 5 of n = 9) was 69. The “Cell spreading area (figure 5f)” value ([2]; value 5 of n = 9) was 3020, the “Cell density (figure 5g)” value ([2]; value 6 of n = 9) was 79 and the “Cell spreading area (figure 5f)” value ([2]; value 6 of n = 9) was 2866.3. For the same substance, the “Cell density (figure 5g)” value ([2]; value 7 of n = 9) was 74, the “Cell spreading area (figure 5f)” value ([2]; value 7 of n = 9) was 2910.3 and the “Cell density (figure 5g)” value ([2]; value 8 of n = 9) was 73. The “Cell spreading area (figure 5f)” value ([2]; value 8 of n = 9) was 3174.3, the “Cell density (figure 5g)” value ([2]; value 9 of n = 9) was 70 and the “Cell spreading area (figure 5f)” value ([2]; value 9 of n = 9) was 3494.7. The “Supplementary Figure8, cell adhesion on modified surface” value (“Supplementary Figure8, cell adhesion” for short) ([2]; replicate 1) was 0.61, the “Supplementary Figure8, cell adhesion” value ([2]; replicate 2) was 0.2888 and the “Supplementary Figure8, cell adhesion” value ([2]; replicate 3) was 0.3748. It also gave a Water contact angle [3] of 41 °.
